Source: PubChem BioAssay AID2060603 (Molecular Pharmacology Branch, DTP, NCI, 2025)

Test system: 422866-222-R5-J1-PDC spheroid viability
Experiment: Anticancer human tumor 422866-222-R5-J1-PDC patient-derived pancreatic adenocarcinoma cell line growth inhibition [CLK]
Settings: spheroids with HUVEC and MSC; for IC50: curve of first compound; for viability, T/C: stronger effect = lower value
Description: A high-throughput screen of multi-cell type tumor spheroids was designed to identify active combinations of […] and targeted small molecules. Complex spheroids include a stromal component modeled by human endothelial cells (HUVEC) and fibroblasts modeled by human mesenchymal stem cells (MSCs). The concentration ranges selected for each drug and investigational agent were based upon clinically achievable concentrations if the clinical Cmax of the agent was known.
Compounds. The drugs and investigational agents: cirtuvivint (SM08502; NSC835563), CC-671 (NSC850746), vemurafenib (NSC761431), tapotoclax (NSC804041), sotorasib (NSC818433), adagrasib (NSC831453), MRTX-1133 (NSC836407), BAY2416964 (NSC825713), copanlisib (NSC816437), inavolisib (NSC800729), abemaciclib (NSC768073), osimertinib (NSC779217), entinostat (NSC756642), eltanexor (KPT-8602, NSC794443), venetoclax (NSC766270), ceralasertib (NSC777638), bortezomib (NSC756655), olaparib (NSC753686), talazoparib (NSC767125), alisertib (NSC759677), peposertib (NSC802822), gemcitabine (NSC613327), 5-fluorouracil (NSC19893), SN-38 (NSC673596), oxaliplatin (NSC266046), paclitaxel (NSC125973), and doxorubicin (NSC123127), were obtained from the National Cancer Institute (NCI) Developmental Therapeutics Program Chemical Repository. The FDA-approved anticancer drug set is available from the Developmental Therapeutics Program at https://dtp.cancer.gov/organization/dscb/obtaining/available plates.htm. […] The stock solutions were prepared in dimethyl sulfoxide (DMSO, Sigma-Aldrich, St. Louis, MO, cat. D2650), except for the platinum complexes which were prepared in saline (Quality Biological, Gaithersburg, MD, cat. 114-055-101), at 800-fold the tested concentration and stored at -70 degrees C prior to their use. All drugs and investigational agents were tested over a range starting from a high concentration at or near the clinical Cmax and decreasing in half-log increments. If the clinical Cmax for an agent had not been determined, the highest concentration tested was 10 microM.
Cell Culture. All cells were maintained in an incubator at 37 degrees C and 5% CO2 with 95% humidity. The PDC lines were cultured according to standard operating procedures established by the NCI PDMR. Briefly, all PDCs were thawed and cultured in Matrigel-coated flasks prepared with a working solution of 1X Ham's F-12 nutrient mix, without supplementation (Invitrogen, Waltham, MA, cat. 11765054), 100 U/mL penicillin-streptomycin (Invitrogen, cat. 15140122), and 2.5% Matrigel (Corning Inc., Corning, NY, cat. 354248) for the first three passages. The 947758-054-R-J2-PDC line was cultured in 6B/Colon 1A media, which includes advanced DMEM/F-12 (Thermo Fisher Scientific, cat. 12634028), 10 mM HEPES (Thermo Fisher Scientific, cat. 15630080), 1X GlutaMAX supplement (Thermo Fisher Scientific, cat. 35050061), 0.1 mg/mL primocin (InvivoGen, cat. ant-pm-2), 10% defined fetal bovine serum, heat inactivated (HyClone Laboratories Inc., cat. SH30070.03HI), 1.25 mM N-Acetyl-L-cysteine (Sigma-Aldrich, cat. A9165), 10 mM nicotinamide (Sigma-Aldrich, cat. N0636), 1X B-27 supplement (Thermo Fisher Scientific, cat. 17504044), 1X N-2 supplement (Thermo Fisher Scientific, cat. 17502048), and 10 microM Y-27632 dihydrochloride (Tocris Bioscience, cat. 1254). The 876862-298-R-J1-PDC was cultured in 6E media, which includes all 6B/Colon 1A media components plus 50% L-WRN conditioned media (ATCC, cat. CRL-3276), 50 ng/mL recombinant human EGF recombinant protein (hEGF; Thermo Fisher Scientific, cat. PHG0311), 10 ng/mL recombinant human fibroblast growth factor 10 (hGFG-10; PeproTech, cat. 100-26), 1 ng/mL recombinant human fibroblast growth factor 2 (hFGF-2; PeproTech, cat. 100-18B), and 1 µM prostaglandin E2 (PGE2; Tocris, cat. 2296). The 227483-062-R1-J1-PDC line was cultured in Panc media, containing all 6E components except hFGF-2, with the addition of 500 nM SB-431542 (Selleckchem, cat. S1067) and 10 nM gastrin (Tocris, cat. 3006). […]
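Further: spheroids exposed to agents for seven days before readout.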

NC(=O)C(=Cn1cnc(-c2cc(C(F)(F)F)cc(C(F)(F)F)c2)n1)c1cncnc1 + CN1CCN(c2cc(C(=O)Nc3cc4cc(-c5cnn(C)c5)ccc4cn3)ccn2)CC1
IC50 (second compound 0.0316 µM): > 3000 nM
IC50 (second compound 0.1 µM): > 3000 nM
IC50 (second compound 0.316 µM): 55.8 nM
IC50 (second compound 1 µM): < 9.49 nM
IC50 (second compound 3.16 µM): < 9.49 nM
IC50 (second compound 10 µM): < 9.49 nM
viability, T/C (second compound 0.0316 µM, first compound 0.00949 µM): 123%
viability, T/C (second compound 0.0316 µM, first compound 0.03 µM): 117%
viability, T/C (second compound 0.0316 µM, first compound 0.0949 µM): 80%
viability, T/C (second compound 0.0316 µM, first compound 0.3 µM): 48.4%
viability, T/C (second compound 0.0316 µM, first compound 0.949 µM): 66.3%
viability, T/C (second compound 0.0316 µM, first compound 3 µM): 78.4%
viability, T/C (second compound 0.1 µM, first compound 0.00949 µM): 110%
viability, T/C (second compound 0.1 µM, first compound 0.03 µM): 94.6%
viability, T/C (second compound 0.1 µM, first compound 0.0949 µM): 73.8%
viability, T/C (second compound 0.1 µM, first compound 0.3 µM): 32.1%
viability, T/C (second compound 0.1 µM, first compound 0.949 µM): 55.6%
viability, T/C (second compound 0.1 µM, first compound 3 µM): 67.4%
viability, T/C (second compound 0.316 µM, first compound 0.00949 µM): 66.5%
viability, T/C (second compound 0.316 µM, first compound 0.03 µM): 63.8%
viability, T/C (second compound 0.316 µM, first compound 0.0949 µM): 38.2%
viability, T/C (second compound 0.316 µM, first compound 0.3 µM): 21.9%
viability, T/C (second compound 0.316 µM, first compound 0.949 µM): 21%
viability, T/C (second compound 0.316 µM, first compound 3 µM): 20.9%
viability, T/C (second compound 1 µM, first compound 0.00949 µM): 15.6%
viability, T/C (second compound 1 µM, first compound 0.03 µM): 14.2%
viability, T/C (second compound 1 µM, first compound 0.0949 µM): 15.1%
viability, T/C (second compound 1 µM, first compound 0.3 µM): 22.4%
viability, T/C (second compound 1 µM, first compound 0.949 µM): 22.9%
viability, T/C (second compound 1 µM, first compound 3 µM): 14.5%
viability, T/C (second compound 3.16 µM, first compound 0.00949 µM): 12.9%
viability, T/C (second compound 3.16 µM, first compound 0.03 µM): 15.1%
viability, T/C (second compound 3.16 µM, first compound 0.0949 µM): 18.3%
viability, T/C (second compound 3.16 µM, first compound 0.3 µM): 18.9%
viability, T/C (second compound 3.16 µM, first compound 0.949 µM): 19.9%
viability, T/C (second compound 3.16 µM, first compound 3 µM): 18.5%
viability, T/C (second compound 10 µM, first compound 0.00949 µM): 2.84%
viability, T/C (second compound 10 µM, first compound 0.03 µM): 1.47%
viability, T/C (second compound 10 µM, first compound 0.0949 µM): 2.11%
viability, T/C (second compound 10 µM, first compound 0.3 µM): 1.91%
viability, T/C (second compound 10 µM, first compound 0.949 µM): 6.33%
viability, T/C (second compound 10 µM, first compound 3 µM): 9.39%
